In ChEMBL document CHEMBL1138442, “Structural insight into the inhibition of human kynurenine aminotransferase I/glutamine transaminase K” (J Med Chem, 2009):
Active and inactive are the calls of the source. The calls are words filed in the database; no cut-off is given here.

What was measured:
[1] = target: T1, Kynurenine--oxoglutarate transaminase 1 (Homo sapiens) (UniProt Q16773); assay: (§1) Inhibition of human recombinant KAT1 expressed in Sf9 cells
T1 sequence (whole entry): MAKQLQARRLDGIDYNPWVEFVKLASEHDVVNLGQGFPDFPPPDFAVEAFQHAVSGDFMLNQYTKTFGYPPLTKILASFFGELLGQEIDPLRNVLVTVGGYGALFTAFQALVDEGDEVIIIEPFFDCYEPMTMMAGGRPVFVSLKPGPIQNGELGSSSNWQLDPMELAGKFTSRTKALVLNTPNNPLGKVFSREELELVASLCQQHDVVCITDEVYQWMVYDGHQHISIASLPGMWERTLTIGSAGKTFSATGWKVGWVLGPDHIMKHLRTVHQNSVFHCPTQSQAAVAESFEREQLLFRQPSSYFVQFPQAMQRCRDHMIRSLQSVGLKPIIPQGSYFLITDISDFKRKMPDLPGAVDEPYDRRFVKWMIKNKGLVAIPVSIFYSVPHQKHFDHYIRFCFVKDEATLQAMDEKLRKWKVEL

[2] = target: T1, Kynurenine--oxoglutarate transaminase 1 (Homo sapiens); assay: Inhibition of human recombinant KAT1 expressed in Sf9 cells assessed as decrease in enzyme activity at 25 % ligand concentration; set-up: scale not given: the % may be the effect or the level left
[3] = target: T2, Kynurenine--oxoglutarate transaminase 1 (Homo sapiens, UniProt Q16773); assay: as §1
T2 sequence (Q16773 whole entry): T1 sequence (whole entry)

SMILES	Activity [1]	also measured
O=C(O)/C=C/c1c[nH]c2ccccc12	Active	–
O=C(O)C(=O)Cc1c[nH]c2ccccc12	Active	–
OCC(O)CO	–	Activity [2]: 10%
O=C(O)C(O)Cc1c[nH]c2ccccc12 (racemic)	–	IC50 [3]: 220 µM
N[C@@H](Cc1c[nH]c2ccccc12)C(=O)O	Active	–
O=C(O)Cc1c[nH]c2ccccc12	Active	–
O=C(O)CCc1c[nH]c2ccccc12 [INDOLYLPROPIONIC ACID]	–	IC50 [3]: 140 µM
